In US20200069691A1, “HETEROCYCLIC COMPOUNDS AS HIV PROTEASE INHIBITORS” (Merck Sharp & Dohme Corp., priority 2016, published 2020):
pIC50: −log10 of the molar value.

Molecular target: T1, wild-type HIV-1 protease (Human immunodeficiency virus type 1 group M subtype B, UniProt P04585)
T1 construct: Escherichia coli expressed wild-type HIV-1 protease protein
Assay: Assay for Inhibition of Microbial Expressed HIV Protease (peptide substrate cleavage, LC-MS/MS readout)
Assay type: biochemical
Details: E. coli expressed wild-type HIV-1 protease, mean of at least two independent experiments, read-out: HIV Pr Enzyme HIV1 PR IC50
In short: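 Cleavage of Val-Ser-Gln-Asn-(β-naphthyl)Ala-Pro-Ile-Val (400 μM) by recombinant HIV-1 protease ([…]) ran 1 h at 30 °C after a 30 min room-temperature inhibitor preincubation in 50 mM sodium acetate pH 5.5. Product peak areas by LC-MS/MS gave inhibition; values average at least two independent runs.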

With `N=C1NC(c2ccccc2)(c2ccccc2)C(=O)N1Cc1cccc(C(=O)N2CCc3cc(F)ccc3C2)c1` [Compound 308, 3-{3-[(6-fluoro-3,4-dihydroisoquinolin-2(1H)-yl)carbonyl]benzyl}-2-imino-5,5-diphenylimidazolidin-4-one] the pIC50 was 7.31.

For `N=C1NC(c2ccccc2)(c2ccccc2)C(=O)N1Cc1cc(F)cc(C(=O)N2Cc3cncnc3C2)c1` [Compound 258, 3-[3-(5,7-dihydro-6H-pyrrolo[3,4-d]pyrimidin-6-ylcarbonyl)-5-fluorobenzyl]-2-imino-5,5-diphenylimidazolidin-4-one], the pIC50 was 7.66.

Molecule `N=C1NC(c2ccccc2)(c2ccccc2)C(=O)N1Cc1ccc(Cl)c(C(=O)N2Cc3cncnc3C2)c1` [Compound 374, 3-[4-chloro-3-(5,7-dihydro-6H-pyrrolo[3,4-d]pyrimidin-6-ylcarbonyl)benzyl]-2-imino-5,5-diphenylimidazolidin-4-one] has a pIC50 of 8.15.

`N=C1N[C@](CCCC(F)(F)F)(c2ccc(F)cc2)C(=O)N1Cc1ccc(C(F)(F)F)c(C(=O)N2CCN(c3cccnc3)CC2)c1` [Compound 108, (5R)-5-(4-fluorophenyl)-2-imino-3-{3-[(4-pyridin-3-ylpiperazin-1-yl)carbonyl]-4-(trifluoromethyl)-benzyl}-5-(4,4,4-trifluorobutyl)-imidazolidin-4-one] showed a pIC50 of 7.58.

With `CC(C)CCC1(c2cccc(F)c2)NC(=N)N(Cc2cccc(C(=O)N3Cc4ccccc4C3)c2)C1=O` (stereo not drawn) [Compound 270, 3-[3-(1,3-dihydro-2H-isoindol-2-ylcarbonyl)benzyl]-5-(3-fluorophenyl)-2-imino-5-(3-methylbutyl)imidazolidin-4-one] the pIC50 was 7.57.

Work on `N=C1NC(c2ccc(F)cc2)(c2ccc(F)cc2)C(=O)N1Cc1cccc(C(=O)N2Cc3cccc(F)c3C2)c1` [Compound 196, 3-{3-[(4-fluoro-1,3-dihydro-2H-isoindol-2-yl)carbonyl]benzyl}-5,5-bis (4-fluorophenyl)-2-iminoimidazolidin-4-one] yielded a pIC50 of 7.50.

`CC(C)CCC1(c2ccccc2)NC(=N)N(Cc2ccc(C(F)(F)F)c(C(=O)N3CCC(C)(C)C3)c2)C1=O` (stereo not drawn) [Compound 176, 3-{3-[(3,3-dimethylpyrrolidin-1-yl)carbonyl]-4-(trifluoromethyl)benzyl}-2-imino-5-(3-methylbutyl)-5-phenylimidazolidin-4-one] gave a pIC50 of 7.20.

`CC(C)CC1(c2ccccc2)NC(=N)N(Cc2ccc(C(F)(F)F)c(C(=O)N3Cc4nccnc4C3)c2)C1=O` (stereo not drawn) [Compound 142, 3-[3-(5,7-dihydro-6H-pyrrolo[3,4-b]pyrazin-6-ylcarbonyl)-4-(trifluoromethyl)benzyl]-2-imino-5-(2-methylpropyl)-5-phenylimidazolidin-4-one] gave a pIC50 of 8.49.

In the case of `CS(=O)(=O)c1cccc(-c2ncc3c(n2)CN(C(=O)c2cc(CN4C(=N)N[C@](CCCC(F)(F)F)(c5ccc(F)cc5)C4=O)ccc2C(F)(F)F)C3)c1` [Compound 24, (5R)-5-(4-fluorophenyl)-2-imino-3-[3-({2-[3-(methylsulfonyl)phenyl]-5,7-dihydro-6H-pyrrolo[3,4-d]pyrimidin-6-yl}carbonyl)-4-(trifluoromethyl)benzyl]-5-(4,4,4-trifluorobutyl)imidazolidin-4-one], the pIC50 was 8.62.

`CC(C)OCC(c1ccc(C(F)(F)F)c(C(=O)N2Cc3nccnc3C2)c1)N1C(=N)N[C@](CCC2CC2)(c2ccc(F)cc2)C1=O` (stereo partly drawn) [Compound 38, (5R)-5-(2-cyclopropylethyl)-3-{1-[3-(5,7-dihydro-6H-pyrrolo[3,4-b]pyrazin-6-ylcarbonyl)-4-(trifluoromethyl)phenyl]-2-(1-methylethoxy)ethyl}-5-(4-fluorophenyl)-2-iminoimidazolidin-4-one] gave a pIC50 of 8.39.

With `N=C1NC(c2ccc(F)cc2)(c2ccc(F)cc2)C(=O)N1Cc1ccc(C(F)(F)F)c(C(=O)N2CCC(F)(F)C2)c1` [Compound 172, 3-{3-[(3,3-difluoropyrrolidin-1-yl)carbonyl]-4-(trifluoromethyl)-benzyl}-5,5-bis(4-fluorophenyl)-2-iminoimidazolidin-4-one] the pIC50 was 7.27.

`CC(C)(O)C(=O)N1CCN(C(=O)c2cc(CN3C(=N)N[C@](CCCC(F)(F)F)(c4ccc(F)cc4)C3=O)ccc2C(F)(F)F)CC1` [Compound 90, (5R)-5-(4-fluorophenyl)-3-[3-{[4-(2-hydroxy-2-methylpropanoyl)-piperazin-1-yl]carbonyl}-4-(trifluoromethyl)benzyl]-2-imino-5-(4,4,4-trifluorobutyl)imidazolidin-4-one] showed a pIC50 of 7.80.

With `CSc1nnc2n1CCN(C(=O)c1cccc(CN3C(=N)NC(c4ccccc4)(c4ccccc4)C3=O)c1)C2` [Compound 246, 2-imino-3-(3-{[3-(methylsulfanyl)-5,6-dihydro[1,2,4]triazolo[4,3-a]pyrazin-7(8H)-yl]carbonyl}benzyl)-5,5-diphenylimidazolidin-4-one] the pIC50 was 7.76.

Molecule `COC(=O)Nc1ncc2c(n1)CN(C(=O)c1cc([C@@H](C)N3C(=N)N[C@](CCC(C)C)(c4ccccc4)C3=O)ccc1C(F)(F)F)C2` [Compound 135, methyl (6-{[5-{(1R)-1-[(4R)-2-imino-4-(3-methylbutyl)-5-oxo-4-phenylimidazolidin-1-yl]ethyl}-2-(trifluoromethyl)phenyl]carbonyl}-6,7-dihydro-5H-pyrrolo[3,4-d]pyrimidin-2-yl)carbamate] has a pIC50 of 8.89.

In the case of `COC(=O)N1CCN(C(=O)c2cccc(CN3C(=N)NC(CCC(C)C)(c4cccc(F)c4)C3=O)c2)CC1` (stereo not drawn) [Compound 348, methyl 4-[(3-{[4-(3-fluorophenyl)-2-imino-4-(3-methylbutyl)-5-oxoimidazolidin-1-yl]methyl}phenyl)-carbonyl]piperazine-1-carboxylate], the pIC50 was 7.08.

`CCCC1(c2ccccc2)NC(=N)N(Cc2cccc(C(=O)N3Cc4cnc(C#N)nc4C3)c2)C1=O` (stereo not drawn) [Compound 243, 6-({3-[(2-imino-5-oxo-4-phenyl-4-propylimidazolidin-1-yl)methyl]phenyl}carbonyl)-6,7-dihydro-5H-pyrrolo[3,4-d]pyrimidine-2-carbonitrile] showed a pIC50 of 7.78.

`CC(C)CCC1(c2ccccc2)NC(=N)N(Cc2cccc(C(=O)N3CCNC(=O)C3)c2)C1=O` (stereo not drawn) [Compound 351, 4-[(3-{[2-imino-4-(3-methylbutyl)-5-oxo-4-phenylimidazolidin-1-yl]methyl}-phenyl)carbonyl]piperazin-2-one] gave a pIC50 of 7.06.

`COC(=O)N1CCN(C(=O)c2cccc(CN3C(=N)NC(c4ccccc4)(c4ccccc4)C3=O)c2)CC1` [Compound 330, methyl 4-({3-[(2-imino-5-oxo-4.4-diphenylimidazolidin-1-yl)methyl]phenyl}carbonyl) piperazine-1-carboxylate] was tested, and the pIC50 was 7.17.

For `Cc1nocc1-c1ncc2c(n1)CN(C(=O)c1cc(CN3C(=N)N[C@](CCCC(F)(F)F)(c4ccc(F)cc4)C3=O)ccc1C(F)(F)F)C2` [Compound 60, (5R)-5-(4-fluorophenyl)-2-imino-3-[3-{[2-(3-methylisoxazol-4-yl)-5,7-dihydro-6H-pyrrolo[3,4-d]pyrimidin-6-yl]carbonyl}-4-(trifluoromethyl)benzyl]-5-(4,4,4-trifluorobutyl)imidazolidin-4-one], the pIC50 was 8.18.

For `CCc1nnc2n1CCN(C(=O)c1cccc(CN3C(=N)NC(c4ccccc4)(c4ccccc4)C3=O)c1)C2` [Compound 356, 3-{3-[(3-ethyl-5,6-dihydro[1,2,4]triazolo[4,3-a]pyrazin-7(8H)-yl)carbonyl]benzyl}-2-imino-5,5-diphenylimidazolidin-4-one], the pIC50 was 7.04.

`CC(C)C[C@@]1(c2ccccc2)NC(=N)N(Cc2ccc(C(F)(F)F)c(C(=O)N3Cc4nccnc4C3)c2)C1=O` [Compound 174, (5S)-3-[3-(5,7-dihydro-6H-pyrrolo[3,4-b]pyrazin-6-ylcarbonyl)-4-(trifluoromethyl)-benzyl]-2-imino-5-(2-methylpropyl)-5-phenylimidazolidin-4-one] showed a pIC50 of 7.26.

Molecule `Cc1n[nH]cc1-c1ncc2c(n1)CN(C(=O)c1cc(CN3C(=N)N[C@](CCCC(F)(F)F)(c4ccc(F)cc4)C3=O)ccc1C(F)(F)F)C2` [Compound 27, (5R)-5-(4-fluorophenyl)-2-imino-3-[3-{[2-(3-methyl-1H-pyrazol-4-yl)-5,7-dihydro-6H-pyrrolo[3,4-d]pyrimidin-6-yl]carbonyl}-4-(trifluoromethyl)benzyl]-5-(4,4,4-trifluorobutyl)imidazolidin-4-one] has a pIC50 of 8.54.

For `Cc1cc2c(cn1)CN(C(=O)c1cccc(CN3C(=N)NC(c4ccc(F)cc4)(c4ccc(F)cc4)C3=O)c1)C2` [Compound 226, 5,5-bis(4-fluorophenyl)-2-imino-3-{3-[(6-methyl-1,3-dihydro-2H-pyrrolo[3,4-c]pyridin-2-yl)carbonyl]benzyl} imidazolidin-4-one], the pIC50 was 7.91.

Work on `N=C1NC(c2ccccc2)(c2ccccc2)C(=O)N1Cc1cccc(C(=O)N2CCn3cc(C(=O)C4CC4)nc3C2)c1` [Compound 250, 3-(3-{[2-(cyclopropylcarbonyl)-5,6-dihydroimidazo [1,2-a]pyrazin-7(8H)-yl]carbonyl}benzyl)-2-imino-5,5-diphenylimidazolidin-4-one] yielded a pIC50 of 7.72.

Molecule `N=C1NC(c2ccccc2)(c2ccccc2)C(=O)N1Cc1cccc(C(=O)N2Cc3cncnc3C2)c1` [Compound 310, 3-[3-(5,7-dihydro-6H-pyrrolo[3,4-d]pyrimidin-6-ylcarbonyl)benzyl]-2-imino-5,5-diphenylimidazolidin-4-one] has a pIC50 of 7.29.

`N=C1NC(c2ccccc2)(c2ccccc2)C(=O)N1Cc1ccc(F)c(C(=O)N2Cc3nccnc3C2)c1` [Compound 379, 3-[3-(5,7-dihydro-6H-pyrrolo[3,4-b]pyrazin-6-ylcarbonyl)-4-fluorobenzyl]-2-imino-5,5-diphenylimidazolidin-4-one] gave a pIC50 of 7.97.

Molecule `COc1ccc(CN2C(=N)NC(c3ccccc3)(c3ccccc3)C2=O)cc1C(=O)N1Cc2ccccc2C1` [Compound 371, 3-[3-(1,3-dihydro-2H-isoindol-2-ylcarbonyl)-4-methoxybenzyl]-2-imino-5,5-diphenylimidazolidin-4-one] has a pIC50 of 7.53.
